In brackets after ≈: the same amount, converted by molar mass.
Assays:
Test in all cases: MIC, microbroth dilution
Format in all cases: cell-based
[1] = system: Staphylococcus aureus ATCC29213; conditions: rifS, Cation-Adjusted Mueller-Hinton Broth, 37° C., read-out: MIC
Method: (§1) Representative compounds were assayed for antimicrobial activity as follows: Minimum Inhibitory Concentrations (“MICs”) were determined by the microbroth dilution method as per NCCLS guidelines (National Committee for Clinical Laboratory Standards, 2000), except that all growth incubations were conducted at 37° C. Bacterial cultures were tested in the following bacteriological media: S. aureus, S. epidermidis, and E. coli in Cation-Adjusted Mueller-Hinton Broth, S. pneumoniae in THY Broth supplemented with 1 mg/mL catalase under 5% CO2 atmosphere, S. pyogenes in THY Broth, E. faecalis in BHI Broth, H. influenzae in BHI Broth supplemented with 0.75 μL of 1 mg/mL NAD and 150 μL of 1 mg/ml hematin per 5 mL, and M smegmatis in Middlebrook Broth plus ADC Enrichment.

[2] = system: Mycobacterium smegmatis ATCC700084; conditions: Mycolicibacterium smegmatis, ATCC700084; rifS; Middlebrook Broth plus ADC Enrichment, 37° C.; read-out: MIC
Method: as §1

[3] = system: Enterococcus faecalis ATCC29212; conditions: rifS, BHI Broth, 37° C., read-out: MIC
Method: as §1

SMILES | MIC [1] [µg/mL] | MIC [2] [µg/mL] | MIC [3] [µg/mL]
CO[C@H]1/C=C/O[C@@]2(C)Oc3c(C)c(O)c4c(c3C2=O)C(=O)C(N2CCOCC2)=C(NC(=O)/C(C)=C\C=C\[C@H](C)[C@H](O)[C@@H](C)[C@@H](O)[C@@H](C)[C@H](OC(=O)NCCc2ccc(Cl)cc2)[C@@H]1C)C4=O [Example 38, 25-O-Desacetyl-(carbonyl-2-(4-Chloro-phenyl)-ethylamine) 3-morpholino rifamycin S] | 0.002 to 1.95 (≈ 0.00217 to 2.12 µM) | 0.063 to 31 | 0.25 to 62 (≈ 0.272 to 67.4 µM)
CO[C@H]1/C=C/O[C@@]2(C)Oc3c(C)c(O)c4c(c3C2=O)C(=O)C(N2CCOCC2)=C(NC(=O)/C(C)=C\C=C\[C@H](C)[C@H](O)[C@@H](C)[C@@H](O)[C@@H](C)[C@H](OC(=O)NCc2cccc(Cl)c2)[C@@H]1C)C4=O [Example 39, 25-O-Desacetyl-(carbonyl-3-chloro-benzylamine) 3-morpholino rifamycin S] | 0.002 to 1.95 (≈ 0.00221 to 2.15 µM) | 0.063 to 31 | 0.25 to 62 (≈ 0.276 to 68.4 µM)
CO[C@H]1/C=C/O[C@@]2(C)Oc3c(C)c(O)c4c(c3C2=O)C(=O)C(N2CCOCC2)=C(NC(=O)/C(C)=C\C=C\[C@H](C)[C@H](O)[C@@H](C)[C@@H](O)[C@@H](C)[C@H](OC(=O)NCc2ccc([N+](=O)[O-])cc2)[C@@H]1C)C4=O [Example 40, 25-O-Desacetyl-(carbonyl-4-nitro-benzylamine) 3-morpholino rifamycin S] | 0.002 to 1.95 (≈ 0.00218 to 2.13 µM) | 0.063 to 31 | 0.25 to 62 (≈ 0.273 to 67.6 µM)
CO[C@H]1/C=C/O[C@@]2(C)Oc3c(C)c(O)c4c(c3C2=O)C(=O)C(N2CCOCC2)=C(NC(=O)/C(C)=C\C=C\[C@H](C)[C@H](O)[C@@H](C)[C@@H](O)[C@@H](C)[C@H](OC(=O)NCc2cnc3ccccc3c2)[C@@H]1C)C4=O [Example 41, 25-O-Desacetyl-(carbonyl-N-quinolin-3-yl-methylamino) 3-morpholino rifamycin S] | 0.002 to 1.95 (≈ 0.00217 to 2.11 µM) | 0.063 to 31 | 0.25 to 62 (≈ 0.271 to 67.2 µM)
C#CCNC(=O)O[C@H]1[C@H](C)[C@H](O)[C@H](C)[C@@H](O)[C@@H](C)/C=C/C=C(/C)C(=O)NC2=C(N3CCOCC3)C(=O)c3c(c(O)c(C)c4c3C(=O)[C@@](C)(O/C=C/[C@H](OC)[C@H]1C)O4)C2=O [Example 43, 25-O-Desacetyl-(carbonyl-prop-2-ynylamino) 3-morpholino rifamycin S] | 0.002 to 1.95 (≈ 0.00244 to 2.38 µM) | 0.063 to 31 | 0.25 to 62 (≈ 0.305 to 75.6 µM)
CO[C@H]1/C=C/O[C@@]2(C)Oc3c(C)c(O)c4c(c3C2=O)C(=O)C(N2CCOCC2)=C(NC(=O)/C(C)=C\C=C\[C@H](C)[C@H](O)[C@@H](C)[C@@H](O)[C@@H](C)[C@H](OC(=O)NCC#Cc2cccc(CO)c2)[C@@H]1C)C4=O [Example 44, 25-O-Desacetyl-(carbonyl-[3-(3-amino-prop-1-ynyl)-phenyl]-methanol) 3-morpholino rifamycin S] | 0.002 to 1.95 (≈ 0.00216 to 2.11 µM) | 0.063 to 31 | 0.25 to 62 (≈ 0.27 to 67 µM)
CO[C@H]1/C=C/O[C@@]2(C)Oc3c(C)c(O)c4c(c3C2=O)C(=O)C(N2CCOCC2)=C(NC(=O)/C(C)=C\C=C\[C@H](C)[C@H](O)[C@@H](C)[C@@H](O)[C@@H](C)[C@H](OC(=O)NCC#Cc2cnc3ccccc3c2)[C@@H]1C)C4=O [Example 45, 25-O-Desacetyl-(carbonyl-3-quinolin-3-yl-prop-2-ynylamine) 3-morpholino rifamycin S] | 0.002 to 1.95 (≈ 0.00211 to 2.06 µM) | 0.063 to 31 | 0.25 to 62 (≈ 0.264 to 65.5 µM)
COc1ccccc1-c1cc(CNC(=O)O[C@H]2[C@H](C)[C@H](O)[C@H](C)[C@@H](O)[C@@H](C)/C=C/C=C(/C)C(=O)NC3=C(N4CCOCC4)C(=O)c4c(c(O)c(C)c5c4C(=O)[C@@](C)(O/C=C/[C@H](OC)[C@H]2C)O5)C3=O)on1 [Example 46, 25-O-Desacetyl-(carbonyl-C-[3-(2-methoxy-phenyl)-isoxazol-5-yl]-methylamino) 3-morpholino rifamycin S] | 0.002 to 1.95 (≈ 0.00206 to 2.01 µM) | 0.063 to 31 | 0.25 to 62 (≈ 0.258 to 64 µM)
CO[C@H]1/C=C/O[C@@]2(C)Oc3c(C)c(O)c4c(c3C2=O)C(=O)C(N2CCOCC2)=C(NC(=O)/C(C)=C\C=C\[C@H](C)[C@H](O)[C@@H](C)[C@@H](O)[C@@H](C)[C@H](OC(=O)NCc2cc(-c3ccccn3)no2)[C@@H]1C)C4=O [Example 47, 25-O-Desacetyl-(carbonyl-C-(3-Pyridin-2-yl-isoxazol-5-yl)-methylamino) 3-morpholino rifamycin S] | 0.002 to 1.95 (≈ 0.00213 to 2.07 µM) | 0.063 to 31 | 0.25 to 62 (≈ 0.266 to 66 µM)
CO[C@H]1/C=C/O[C@@]2(C)Oc3c(C)c(O)c4c(c3C2=O)C(=O)C(N2CCOCC2)=C(NC(=O)/C(C)=C\C=C\[C@H](C)[C@H](O)[C@@H](C)[C@@H](O)[C@@H](C)[C@H](OC(=O)NCc2cc(C(C)=O)no2)[C@@H]1C)C4=O [Example 48] | 0.002 to 1.95 (≈ 0.00221 to 2.15 µM) | 0.063 to 31 | 0.25 to 62 (≈ 0.276 to 68.5 µM)
CO[C@H]1/C=C/O[C@@]2(C)Oc3c(C)c(O)c4c(c3C2=O)C(=O)C(N2CCOCC2)=C(NC(=O)/C(C)=C\C=C\[C@H](C)[C@H](O)[C@@H](C)[C@@H](O)[C@@H](C)[C@H](OC(=O)N2CCN(CCNc3ccc(C(=NO)Nc5ccccc5)cc3C(F)(F)F)CC2)[C@@H]1C)C4=O [Example 49, 25-O-Desacetyl-(carbonyl-N-hydroxy-N′-phenyl-4-(2-piperazin-1-yl-ethylamino)-3-trifluoromethyl-benzamidine) 3-morpholino rifamycin S] | 0.002 to 1.95 (≈ 0.00171 to 1.66 µM) | 0.063 to 31 | 0.25 to 62 (≈ 0.213 to 52.9 µM)
Cc1cc2cc(NC(=O)c3ccc(N4CCNCC4)c(C(F)(F)F)c3)ccc2[nH]1 [Example 50, N-(2-Methyl-1H-indol-5-yl)-4-piperazin-1-yl-3-trifluoromethyl-benzamide] | 0.002 to 1.95 (≈ 0.00497 to 4.85 µM) | 0.063 to 31 | 0.25 to 62 (≈ 0.621 to 154 µM)
CO[C@H]1/C=C/O[C@@]2(C)Oc3c(C)c(O)c4c(c3C2=O)C(=O)C(N2CCOCC2)=C(NC(=O)/C(C)=C\C=C\[C@H](C)[C@H](O)[C@@H](C)[C@@H](O)[C@@H](C)[C@H](OC(=O)N2CCN(c3ccc(C(=O)Nc5ccc6[nH]c(C)cc6c5)cc3C(F)(F)F)CC2)[C@@H]1C)C4=O [Example 51, 25-O-Desacetyl-(carbonyl-N-(2-methyl-1H-indol-5-yl)-4-piperazin-1-yl-3-trifluoromethyl-benzamide) 3-morpholino rifamycin S] | 0.002 to 1.95 (≈ 0.00171 to 1.67 µM) | 0.063 to 31 | 0.25 to 62 (≈ 0.214 to 53.1 µM)
COc1cncc(NC(=O)c2ccc(N3CCN(C(=O)O[C@H]4[C@H](C)[C@H](O)[C@H](C)[C@@H](O)[C@@H](C)/C=C/C=C(/C)C(=O)NC5=C(N6CCOCC6)C(=O)c6c(c(O)c(C)c7c6C(=O)[C@@](C)(O/C=C/[C@H](OC)[C@H]4C)O7)C5=O)CC3)c(C(F)(F)F)c2)c1 [Example 53, 25-O-Desacetyl-(carbonyl-N-(5-methoxy-pyridin-3-yl)-4-piperazin-1-yl-3-trifluoromethyl-benzamide) 3-morpholino rifamycin S] | 0.002 to 1.95 (≈ 0.00175 to 1.7 µM) | 0.063 to 31 | 0.25 to 62 (≈ 0.218 to 54.1 µM)
COc1c(N2CCC(NC3CCN(C(=O)O[C@H]4[C@H](C)[C@H](O)[C@H](C)[C@@H](O)[C@@H](C)/C=C/C=C(/C)C(=O)NC5=C(N6CCOCC6)C(=O)c6c(c(O)c(C)c7c6C(=O)[C@@](C)(O/C=C/[C@H](OC)[C@H]4C)O7)C5=O)CC3)C2)c(F)cc2c(=O)c(C(=O)O)cn(C3CC3)c12 (stereo partly drawn) [Example 56] | 0.002 to 1.95 (≈ 0.00165 to 1.61 µM) | 0.063 to 31 | 0.25 to 62 (≈ 0.207 to 51.3 µM)
CO[C@H]1/C=C/O[C@@]2(C)Oc3c(C)c(O)c4c(c3C2=O)C(=O)C(N2CCOCC2)=C(NC(=O)/C(C)=C\C=C\[C@H](C)[C@H](O)[C@@H](C)[C@@H](O)[C@@H](C)[C@H](OC(=O)N2CCC(N3CCN(c5cc6c(cc5F)c(=O)c(C(=O)O)cn6C5CC5)CC3)CC2)[C@@H]1C)C4=O [Example 57] | 0.002 to 1.95 (≈ 0.0017 to 1.65 µM) | 0.063 to 31 | 0.25 to 62 (≈ 0.212 to 52.6 µM)
COc1c(N2CCC(NC3CCN(C(=O)O[C@H]4[C@H](C)[C@H](O)[C@H](C)[C@@H](O)[C@@H](C)/C=C/C=C(/C)C(=O)NC5=C(N6CCOCC6)C(=O)c6c(c(O)c(C)c7c6C(=O)[C@@](C)(O/C=C/[C@H](OC)[C@H]4C)O7)C5=O)CC3)CC2)c(F)cc2c(=O)c(C(=O)O)cn(C3CC3)c12 [Example 58] | 0.002 to 1.95 (≈ 0.00163 to 1.59 µM) | 0.063 to 31 | 0.25 to 62 (≈ 0.204 to 50.7 µM)
COc1c(N2CCCC(NC3CCN(C(=O)O[C@H]4[C@H](C)[C@H](O)[C@H](C)[C@@H](O)[C@@H](C)/C=C/C=C(/C)C(=O)NC5=C(N6CCOCC6)C(=O)c6c(c(O)c(C)c7c6C(=O)[C@@](C)(O/C=C/[C@H](OC)[C@H]4C)O7)C5=O)CC3)C2)c(F)cc2c(=O)c(C(=O)O)cn(C3CC3)c12 (stereo partly drawn) [Example 59] | 0.002 to 1.95 (≈ 0.00163 to 1.59 µM) | 0.063 to 31 | 0.25 to 62 (≈ 0.204 to 50.7 µM)
COc1c(N2CCN(C3CCN(C(=O)O[C@H]4[C@H](C)[C@H](O)[C@H](C)[C@@H](O)[C@@H](C)/C=C/C=C(/C)C(=O)NC5=C(N6CCOCC6)C(=O)c6c(c(O)c(C)c7c6C(=O)[C@@](C)(O/C=C/[C@H](OC)[C@H]4C)O7)C5=O)CC3)CC2)c(F)cc2c(=O)c(C(=O)O)cn(C3CC3)c12 [Example 60] | 0.002 to 1.95 (≈ 0.00165 to 1.61 µM) | 0.063 to 31 | 0.25 to 62 (≈ 0.207 to 51.3 µM)
COc1c(N2CCN(C3CCN(C(=O)O[C@H]4[C@H](C)[C@H](O)[C@H](C)[C@@H](O)[C@@H](C)/C=C/C=C(/C)C(=O)NC5=C(N6CCOCC6)C(=O)c6c(c(O)c(C)c7c6C(=O)[C@@](C)(O/C=C/[C@H](OC)[C@H]4C)O7)C5=O)C3)CC2)c(F)cc2c(=O)c(C(=O)O)cn(C3CC3)c12 (stereo partly drawn) [Example 62] | 0.002 to 1.95 (≈ 0.00167 to 1.63 µM) | 0.063 to 31 | 0.25 to 62 (≈ 0.209 to 51.9 µM)
CO[C@H]1/C=C/O[C@@]2(C)Oc3c(C)c(O)c4c(c3C2=O)C(=O)C(N2CCOCC2)=C(NC(=O)/C(C)=C\C=C\[C@H](C)[C@H](O)[C@@H](C)[C@@H](O)[C@@H](C)[C@H](OC(=O)NCC(=O)NC2CCN(c3c(F)cc5c(=O)c(C(=O)O)cn(C6CC6)c5c3Cl)C2)[C@@H]1C)C4=O (stereo partly drawn) [Example 63] | 0.002 to 1.95 (≈ 0.00168 to 1.64 µM) | 0.063 to 31 | 0.25 to 62 (≈ 0.21 to 52.2 µM)

From patent US7250413B2, “C-25 carbamate rifamycin derivatives with activity against drug-resistant microbes” (Cumbre Pharmaceuticals Inc., priority 2004, dated 2007)
